Activity calls are given as the source filed them.
What was measured:
Mu-type opioid receptor = Mu-type opioid receptor (Homo sapiens, UniProt P35372); format: functional, cell-based;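 note: U2OS cells with beta-arrestin recruitment to OPRM1 by beta-gal complementation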
[1] = biological target: 5-hydroxytryptamine receptor 2A (Mus musculus, UniProt P35363); format: functional, cell-based;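 note: CHO-K1 cells with tagged receptor and beta-arrestin; agonist potency measured as compound-induced activation of the receptor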
Sequence of 5-hydroxytryptamine receptor 2A (P35363 whole entry): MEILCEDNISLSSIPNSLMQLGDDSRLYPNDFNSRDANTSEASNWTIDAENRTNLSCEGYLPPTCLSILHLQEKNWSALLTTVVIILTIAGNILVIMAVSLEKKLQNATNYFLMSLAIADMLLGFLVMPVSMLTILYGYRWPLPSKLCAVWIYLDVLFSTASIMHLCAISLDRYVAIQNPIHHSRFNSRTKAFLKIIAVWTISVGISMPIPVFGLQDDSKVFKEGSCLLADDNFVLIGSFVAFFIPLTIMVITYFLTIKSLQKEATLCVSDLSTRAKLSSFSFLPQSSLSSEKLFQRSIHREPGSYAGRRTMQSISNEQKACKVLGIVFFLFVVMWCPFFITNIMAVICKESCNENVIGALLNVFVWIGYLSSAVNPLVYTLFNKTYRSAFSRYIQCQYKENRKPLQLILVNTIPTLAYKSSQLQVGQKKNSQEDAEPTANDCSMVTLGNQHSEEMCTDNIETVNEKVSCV

Streptococcus = experiment: Group A Streptococcus viability loss, dose response, counter-screen for streptokinase expression inhibitor project, luminescence, BacTiterGlo (AID 1915); format: functional, organism-based;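 note: potency for reduction of bacterial viability or growth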
Cysteine protease ATG4B = biological target: T1, Cysteine protease ATG4B (Homo sapiens, UniProt Q9Y4P1); format: functional;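 note: Fluorescence-based dose-response confirmation assay measuring inhibition of ATG4B activity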
T1 sequence (Q9Y4P1 whole entry): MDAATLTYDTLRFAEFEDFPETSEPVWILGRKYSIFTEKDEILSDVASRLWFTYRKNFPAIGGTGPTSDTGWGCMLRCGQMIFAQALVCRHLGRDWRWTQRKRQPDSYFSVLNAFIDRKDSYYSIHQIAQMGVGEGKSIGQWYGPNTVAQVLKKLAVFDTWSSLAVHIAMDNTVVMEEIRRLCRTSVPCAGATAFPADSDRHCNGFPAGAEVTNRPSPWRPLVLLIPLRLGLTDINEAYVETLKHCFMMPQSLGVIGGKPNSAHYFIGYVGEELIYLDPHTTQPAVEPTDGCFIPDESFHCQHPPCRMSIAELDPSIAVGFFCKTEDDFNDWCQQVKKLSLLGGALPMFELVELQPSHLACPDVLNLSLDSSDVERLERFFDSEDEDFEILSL

Cytochrome P450 1A2 = biological target: T2, Cytochrome P450 1A2 (Homo sapiens, UniProt P05177);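 note: PubChem cytochrome P450 panel assay, CYP1A2 panel member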
T2 sequence (P05177 whole entry): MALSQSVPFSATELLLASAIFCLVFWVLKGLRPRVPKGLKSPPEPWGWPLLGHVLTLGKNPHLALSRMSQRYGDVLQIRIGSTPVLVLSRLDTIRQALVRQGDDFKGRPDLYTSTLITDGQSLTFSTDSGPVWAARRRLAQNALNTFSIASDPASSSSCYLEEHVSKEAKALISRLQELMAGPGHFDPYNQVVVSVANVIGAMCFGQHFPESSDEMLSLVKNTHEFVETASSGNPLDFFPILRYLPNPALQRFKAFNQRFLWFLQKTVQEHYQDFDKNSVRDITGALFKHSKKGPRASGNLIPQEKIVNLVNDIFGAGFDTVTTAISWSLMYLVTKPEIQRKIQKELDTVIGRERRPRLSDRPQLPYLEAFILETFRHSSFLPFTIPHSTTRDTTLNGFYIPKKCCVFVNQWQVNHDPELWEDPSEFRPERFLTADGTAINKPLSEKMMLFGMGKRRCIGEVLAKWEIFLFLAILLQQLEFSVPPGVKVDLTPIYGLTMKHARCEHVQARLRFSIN

[2] = biological target: T3, Sentrin-specific protease 1 (Homo sapiens, UniProt Q9P0U3); experiment: potency of human SENP1 inhibitors, dose response, biochemical, kinetic FRET (AID 651697); format: functional; conditions: read-out: IC50_Mean
T3 sequence (Q9P0U3 whole entry): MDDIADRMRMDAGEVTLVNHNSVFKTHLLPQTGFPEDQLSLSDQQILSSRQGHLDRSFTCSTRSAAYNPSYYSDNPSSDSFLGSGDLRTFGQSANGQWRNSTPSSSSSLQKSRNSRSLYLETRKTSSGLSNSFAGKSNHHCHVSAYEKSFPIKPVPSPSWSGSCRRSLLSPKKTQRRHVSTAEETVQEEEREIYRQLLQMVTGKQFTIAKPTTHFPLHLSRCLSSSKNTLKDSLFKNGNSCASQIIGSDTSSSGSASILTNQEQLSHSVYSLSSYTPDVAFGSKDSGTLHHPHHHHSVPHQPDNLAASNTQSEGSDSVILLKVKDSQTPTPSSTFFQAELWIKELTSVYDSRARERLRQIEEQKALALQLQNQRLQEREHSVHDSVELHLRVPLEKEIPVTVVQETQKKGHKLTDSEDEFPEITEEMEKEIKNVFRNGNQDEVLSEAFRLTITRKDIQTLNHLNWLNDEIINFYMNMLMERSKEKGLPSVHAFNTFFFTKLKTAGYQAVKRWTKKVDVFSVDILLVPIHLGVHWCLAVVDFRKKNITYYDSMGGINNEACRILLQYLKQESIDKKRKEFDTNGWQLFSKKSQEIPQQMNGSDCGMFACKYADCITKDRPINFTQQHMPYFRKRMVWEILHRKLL

[3] = biological target: T3, Sentrin-specific protease 1; experiment: Dose response confirmation of small molecule inhibitors of the catalytic domain of the SUMO protease, SENP1 in a FRET assay.; format: functional; conditions: read-out: IC50_Mean
[4] = test system: Streptococcus sp. 'group A'; experiment: growth inhibition of control SK(-) GAS strain, dose response, counter-screen for streptokinase expression inhibitor project, luminescence, kanamycin, BacTiterGlo, confirmation (AID 1900); format: functional, organism-based
Streptokinase A = biological target: T4, Streptokinase A (Streptococcus pyogenes serotype M1, UniProt P10520); experiment: S. pyogenes streptokinase expression inhibitors, potency, dose response, plasminogen activation absorbance, OD405 (AID 1914); format: functional, Streptococcus pyogenes M1 GAS;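 note: secreted streptokinase activity via plasminogen activation per viability signal from cell pellet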
T4 sequence (P10520 whole entry): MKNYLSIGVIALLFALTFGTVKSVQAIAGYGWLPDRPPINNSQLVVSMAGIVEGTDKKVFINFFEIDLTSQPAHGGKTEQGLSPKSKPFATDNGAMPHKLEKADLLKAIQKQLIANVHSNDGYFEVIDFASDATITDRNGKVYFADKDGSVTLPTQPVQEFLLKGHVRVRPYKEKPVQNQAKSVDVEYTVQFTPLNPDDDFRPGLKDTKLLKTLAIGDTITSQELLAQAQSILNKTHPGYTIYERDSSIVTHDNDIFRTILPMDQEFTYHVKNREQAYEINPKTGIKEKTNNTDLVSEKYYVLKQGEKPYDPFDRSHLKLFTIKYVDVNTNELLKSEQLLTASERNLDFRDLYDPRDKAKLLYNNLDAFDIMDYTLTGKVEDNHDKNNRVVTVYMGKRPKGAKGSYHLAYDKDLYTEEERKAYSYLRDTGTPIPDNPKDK

Phospholipase A2 = Phospholipase A2 (Homo sapiens, UniProt P04054); format: functional;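 note: confirmatory dose-response counterscreen on phospholipase A2, testing hits that came from an ultra-high-throughput screen for ATG4B inhibitors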
Sequence of Phospholipase A2 (P04054 whole entry, the tested form may be a part): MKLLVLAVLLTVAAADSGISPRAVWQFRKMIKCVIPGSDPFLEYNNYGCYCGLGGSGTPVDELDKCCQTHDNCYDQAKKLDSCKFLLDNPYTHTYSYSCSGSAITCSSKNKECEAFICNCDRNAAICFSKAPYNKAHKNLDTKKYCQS

[5] = inhibitors of HIV Env-driven cell fusion, dose response, cherry-pick (AID 652057); format: functional, cell-based
[6] = CEM21 lymphoblast cell cytotoxicity, dose response, cytotoxicity control for viral fusion inhibitor project, CellTiter-Glo luminescence, cherry-picked (AID 652042); format: functional, cell-based;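 note: potency for signal decrease meaning cytotoxicity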
[7] = biological target: Fructose-bisphosphate aldolase (Mycobacterium tuberculosis, UniProt P9WQA3); experiment: Fluorescence-based biochemical high throughput dose response assay for inhibitors of the fructose-bisphosphate aldolase (FBA) of M. tuberculosis.; format: functional
Sequence of Fructose-bisphosphate aldolase (P9WQA3 whole entry): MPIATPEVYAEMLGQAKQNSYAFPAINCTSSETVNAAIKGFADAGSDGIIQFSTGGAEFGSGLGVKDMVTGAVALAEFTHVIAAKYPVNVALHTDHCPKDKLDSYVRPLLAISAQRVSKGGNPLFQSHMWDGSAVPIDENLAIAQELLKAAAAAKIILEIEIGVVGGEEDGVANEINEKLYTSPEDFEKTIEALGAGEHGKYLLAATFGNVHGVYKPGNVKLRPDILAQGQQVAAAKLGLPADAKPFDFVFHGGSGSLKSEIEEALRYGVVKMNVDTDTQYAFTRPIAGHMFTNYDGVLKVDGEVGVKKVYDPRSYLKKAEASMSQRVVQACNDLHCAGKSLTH

Large T antigen = Large T antigen (Simian virus 40, UniProt P03070); format: functional, Betapolyomavirus macacae;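 note: Confirmatory-stage PubChem screen for compounds that inhibit SV40 T antigen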
Sequence of Large T antigen (P03070 whole entry): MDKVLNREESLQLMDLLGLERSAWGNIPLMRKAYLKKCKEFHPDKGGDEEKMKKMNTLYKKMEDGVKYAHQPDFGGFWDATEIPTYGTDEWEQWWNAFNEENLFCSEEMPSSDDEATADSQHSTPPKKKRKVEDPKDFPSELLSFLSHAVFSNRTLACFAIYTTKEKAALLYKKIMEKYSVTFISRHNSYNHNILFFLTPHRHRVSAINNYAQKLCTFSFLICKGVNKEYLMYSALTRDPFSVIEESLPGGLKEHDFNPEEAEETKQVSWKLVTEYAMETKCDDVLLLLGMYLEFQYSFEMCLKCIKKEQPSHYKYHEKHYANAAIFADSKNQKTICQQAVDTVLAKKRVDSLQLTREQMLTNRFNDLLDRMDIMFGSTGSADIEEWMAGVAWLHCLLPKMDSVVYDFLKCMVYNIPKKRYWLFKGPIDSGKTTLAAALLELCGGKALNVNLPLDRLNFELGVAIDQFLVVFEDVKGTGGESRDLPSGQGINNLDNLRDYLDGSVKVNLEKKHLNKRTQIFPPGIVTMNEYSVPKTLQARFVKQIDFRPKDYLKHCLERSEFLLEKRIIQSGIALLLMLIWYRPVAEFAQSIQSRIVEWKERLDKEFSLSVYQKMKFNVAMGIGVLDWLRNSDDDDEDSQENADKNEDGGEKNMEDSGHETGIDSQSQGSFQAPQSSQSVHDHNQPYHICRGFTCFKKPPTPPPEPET

[8] = biological target: T5, DNA repair and recombination protein RAD54-like (Homo sapiens, UniProt Q92698); experiment: inhibitors of human RAD54 branch migration, confirmation, biochemical, fluorescence, cherry-picked samples, dose series (AID 651657); format: functional
T5 sequence (Q92698 whole entry): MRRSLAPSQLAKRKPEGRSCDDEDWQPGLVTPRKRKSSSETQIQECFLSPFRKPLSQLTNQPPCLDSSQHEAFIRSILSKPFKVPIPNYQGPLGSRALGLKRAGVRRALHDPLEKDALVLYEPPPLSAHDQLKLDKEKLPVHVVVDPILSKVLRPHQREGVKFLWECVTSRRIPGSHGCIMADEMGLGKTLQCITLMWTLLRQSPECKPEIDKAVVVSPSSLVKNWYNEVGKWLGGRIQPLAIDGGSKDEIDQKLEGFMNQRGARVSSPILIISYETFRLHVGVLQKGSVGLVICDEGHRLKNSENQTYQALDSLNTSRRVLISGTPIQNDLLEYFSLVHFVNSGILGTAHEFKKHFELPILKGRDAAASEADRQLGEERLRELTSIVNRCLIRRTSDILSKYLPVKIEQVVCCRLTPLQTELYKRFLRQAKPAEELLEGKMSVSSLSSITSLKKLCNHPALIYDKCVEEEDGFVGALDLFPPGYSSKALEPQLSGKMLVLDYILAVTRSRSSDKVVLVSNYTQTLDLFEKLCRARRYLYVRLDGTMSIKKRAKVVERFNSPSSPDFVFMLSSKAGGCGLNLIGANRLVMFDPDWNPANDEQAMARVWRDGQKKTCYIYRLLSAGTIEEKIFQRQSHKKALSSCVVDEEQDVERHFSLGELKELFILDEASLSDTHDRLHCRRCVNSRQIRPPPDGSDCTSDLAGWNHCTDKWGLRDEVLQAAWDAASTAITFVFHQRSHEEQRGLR

cells [9] = format: functional, cell-based
cells [10] = format: functional, cell-based; remark: listed apart in the source
[11] = biological target: T6, Trace amine-associated receptor 1 (Homo sapiens, UniProt Q96RJ0); experiment: Counterscreen for agonists of the human trace amine associated receptor 1 (hTAAR1): Fluorescence-based cell-based high throughput dose response assay to identify hTAAR1 agonist that also desensitize TAAR1 receptor response.; format: functional
T6 sequence (Q96RJ0 whole entry): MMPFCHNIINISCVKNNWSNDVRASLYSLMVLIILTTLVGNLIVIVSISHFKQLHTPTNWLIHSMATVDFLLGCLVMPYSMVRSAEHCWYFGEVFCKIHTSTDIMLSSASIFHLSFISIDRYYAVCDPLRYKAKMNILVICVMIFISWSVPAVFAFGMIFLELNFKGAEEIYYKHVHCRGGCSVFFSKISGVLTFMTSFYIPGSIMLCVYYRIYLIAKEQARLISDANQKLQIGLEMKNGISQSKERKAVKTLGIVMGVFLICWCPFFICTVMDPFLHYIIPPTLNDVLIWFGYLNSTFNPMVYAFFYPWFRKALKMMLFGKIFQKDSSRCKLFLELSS

[12] = biological target: T6, Trace amine-associated receptor 1; experiment: Fluorescence-based cell-based high throughput dose response assay to identify agonists of the human trace amine associated receptor 1 (TAAR1).; format: functional
[13] = inhibitors of clade B AD8 Env fusion, dose response, cell-based, cherry-pick (AID 652062); format: functional;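 note: luciferase signal from cell-cell fusion driven by HIV-1 clade B AD8 Env; potency is for inhibitors of fusion seen as a drop in luminescence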
[14] = ZM109 Env clade C HIV-1 fusion inhibitors, dose response, HeLa effector, CEM target cells, luciferase, cherry-pick (AID 652058); format: functional, cell-based
[15] = A Cell Based Secondary Assay To Explore Cytotoxicity of Compounds that Sensitize Mycobacterium Tuberculosis to Beta-Lactam Antibiotics.; format: functional
[16] = HeLa cell cytotoxicity, dose response, cytotoxicity control for MgcRacGAP inhibitor project (AID 624300); format: functional
INS1 = experiment: beta cell apoptosis inhibitors, cytokine rescue, dose response, luminescence, retest (AID 449756); format: functional, cell-based; conditions: Rattus norvegicus;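 note: cell death triggered by IL-1 beta plus TNF-alpha plus IFN-gamma mixture; protective hits raise ATP signal compared with cytokine alone wells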
[17] = biological target: T7, Rac GTPase-activating protein 1 (Homo sapiens, UniProt Q9H0H5); experiment: MgcRacGAP GTPase-activating activity inhibitors, confirmation, biochemical, ADP Hunter fluorescence, primary and confirmatory (AID 624330); format: functional
T7 sequence (Q9H0H5 whole entry): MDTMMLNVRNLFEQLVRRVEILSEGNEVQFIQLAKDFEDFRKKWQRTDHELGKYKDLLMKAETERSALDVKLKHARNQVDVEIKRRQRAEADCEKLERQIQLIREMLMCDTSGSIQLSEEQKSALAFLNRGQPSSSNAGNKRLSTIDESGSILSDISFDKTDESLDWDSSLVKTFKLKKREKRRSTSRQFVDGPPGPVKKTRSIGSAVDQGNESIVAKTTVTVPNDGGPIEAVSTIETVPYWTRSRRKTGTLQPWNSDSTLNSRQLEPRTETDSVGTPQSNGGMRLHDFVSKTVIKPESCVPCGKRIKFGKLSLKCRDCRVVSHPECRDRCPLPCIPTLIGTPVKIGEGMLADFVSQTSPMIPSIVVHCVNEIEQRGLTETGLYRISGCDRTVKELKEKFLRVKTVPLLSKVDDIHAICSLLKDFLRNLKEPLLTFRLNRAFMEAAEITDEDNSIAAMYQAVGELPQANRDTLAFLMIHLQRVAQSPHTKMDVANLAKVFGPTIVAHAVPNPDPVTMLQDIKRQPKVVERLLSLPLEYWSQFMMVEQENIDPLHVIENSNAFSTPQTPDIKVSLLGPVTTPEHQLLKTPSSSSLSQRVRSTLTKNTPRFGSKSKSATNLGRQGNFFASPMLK

Sequence of Mu-type opioid receptor (P35372 whole entry): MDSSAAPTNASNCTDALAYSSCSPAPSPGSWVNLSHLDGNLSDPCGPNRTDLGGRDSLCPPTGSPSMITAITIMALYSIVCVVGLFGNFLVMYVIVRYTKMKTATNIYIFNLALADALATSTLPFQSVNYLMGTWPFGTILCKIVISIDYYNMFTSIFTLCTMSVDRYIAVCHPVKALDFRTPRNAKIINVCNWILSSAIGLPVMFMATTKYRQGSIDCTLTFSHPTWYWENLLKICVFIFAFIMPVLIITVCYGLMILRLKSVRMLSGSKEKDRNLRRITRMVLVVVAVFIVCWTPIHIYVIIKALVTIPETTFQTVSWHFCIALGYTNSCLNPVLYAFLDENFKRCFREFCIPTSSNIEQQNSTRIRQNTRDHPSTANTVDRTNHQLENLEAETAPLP

Cn1c2c(c3ccccc31)CCN(CCCCN1CCN(c3ccccc3)CC1)C2=O
EC50 (Mu-type opioid receptor): 92.4 µM (inactive)
EC50 [1]: 0.0455 µM (active)

CC(C)c1ccc2nc3sc(C(=O)N4CCc5ccccc5C4)c(N)c3cc2c1
EC50 (Streptococcus): > 150 µM (not active)
IC50 (Cysteine protease ATG4B): 7.08 µM (active)
AC50 (Cytochrome P450 1A2): 11.2 µM (inconclusive)
IC50 [2]: 2.58 µM (active)
IC50 [3]: 5.22 µM (active)
EC50 [4]: 25.6 µM (active)
EC50 (Streptokinase A): 101 µM (active)
IC50 (Phospholipase A2): 4.83 µM (active)

CCc1nc(N2CCCCC2)c2oc3ccccc3c2n1
AC50 [5]: 30.8 µM (active)
AC50 [6]: 41.8 µM (active)

N#CCCN(C(=O)COc1ccc(F)cc1Br)c1ccccc1F
IC50 [7]: > 9.99 µM (inactive)

OCCNc1nc(Nc2ccc(O)cc2)nc2ccccc12
IC50 (Large T antigen): 4.5 µM (active)
AC50 [8]: 38.6 µM (active)
IC50 (cells [9]): > 29.9 µM (inactive)
EC50 (cells [10]): > 29.9 µM (inactive)
IC50 [11]: 1.64 µM (active)
EC50 [12]: 0.578 µM (active)

Cc1ccc2n(n1)c(=O)c(Cc1ccccc1)c([O-])[n+]2-c1ccccc1
IC50 [2]: 16.8 µM (active)
IC50 [3]: 12.7 µM (active)

CCOc1ccc(C/C(=N/CCc2ccccc2)C2=C(O)CC(C)(C)CC2=O)cc1OCC
IC50 (cells [9]): > 29.9 µM (inactive)
EC50 (cells [10]): > 29.9 µM (inactive)
IC50 [11]: 2.84 µM (active)
EC50 [12]: 0.358 µM (active)

COc1ccc2c3c([nH]c2c1)[C@@H](CO)N(C(=O)Nc1cccc(F)c1)CC31CN(S(=O)(=O)c2cccc(C)c2)C1
AC50 [13]: 24.2 µM (active)
AC50 [5]: 22.7 µM (active)
AC50 [14]: 14.9 µM (active)
AC50 [6]: 23.1 µM (active)

CCO[C@@H]1c2c(ccc3ccc(=O)oc23)OC(C)(C)[C@H]1O
IC50 [7]: > 1.11 µM (active)

COc1ccc2oc(C(=O)Nc3nc4ccccc4[nH]3)c(C)c2c1
EC50 (Mu-type opioid receptor): 92.5 µM (inactive)
EC50 (Streptococcus): 12 µM (active)
EC50 [1]: 76.1 µM (inactive)
EC50 [4]: 2.61 µM (active)
EC50 (Streptokinase A): > 150 µM (not active)
CC50 [15]: > 40 µM (active)

Cc1ccc2c(c1)[nH]c1c(N3CCN(Cc4ccccc4)CC3)ncnc12
CC50 [16]: 57.9 µM (active)
AC50 (INS1): 3.89 µM (active)
IC50 [17]: 47.8 µM (active)

From ChEMBL document CHEMBL1201862, “PubChem BioAssay data set” (2004)
